Experimental findings from patent publication US20140073634A1 (Institute For Applied Cancer Science/The University of …, priority 2012, published 2014) are described below.

Structures are written as SMILES.

One data set concerns 293T-HRE-GFP-luc cells. Nature of the data set: Cell-based reporter assay for IC50 determinations (HRE-luciferase, hypoxia). The following applies: 6 hrs hypoxia (1% O2), luminescence. Put shortly:
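293T-HRE-GFP-luc cells were pre-incubated with serially diluted compounds for 30 min under normoxia, then held 6 hrs in hypoxia (1% O2, 37° C). HRE-driven luciferase read by Steadylite Plus luminescence; IC50 from four-parameter logistic fit.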
On the technique in general: A reporter such as luciferase makes a cellular process visible.

The next data set concerns TMD8 cells. In words: Diffuse large B-cell lymphoma (DLBCL) assay, viable cells by Guava ViaCount. The following applies: varying concentrations, 7 days. It is filed as cell-based. As for the experimental part: Diffuse Large B-Cell Lymphoma (DLBCL) Assay
Equal number of TMD8 cells were plated and treated with varying concentrations of the compound of Example 7 for 7 days. Percent of viable cells was determined using Guava ViaCount reagents (EMD Millipore cat #4000-0040) that contains proprietary dyes that enable the determination of the number of live and dead cells in a sample (FIG. 1).

Another data set has as its system OCI-AML3 cell line. Nature of the data set: Acute myeloid leukemia cell line viability. It is filed as cell-based, human. The following applies: OCI-AML3, various concentrations, 7 days. As for the experimental part:
(§1) The OCI-AML3 cell line was treated with various concentrations of the compound of Example 7 for 7 days and the percent of viable cells normalized to control cells treated with DMSO (FIG. 8). CD45+ primary AML cells from an AML patient or CD45+ normal bone marrow cells from a healthy volunteer were treated with the compound of Example 7 for 4 days and the number of viable cells and percentage of apoptotic (annexin V) were determined (FIGS. 9a and 9b). […] OCI-AML3 cells constitutively expressing luciferase were tail vein injected in NSG nude mice. 17 days after cell injection, luciferin was injected into animals and luciferase signal was measured using an IVIS imaging system to determine tumor burden and for randomization of subjects into study groups. On day 18, animals began receiving daily oral doses of vehicle or 60 mpk of the compound of Example 7 were started and continued throughout the study. On day 28, imaging was performed again to determine tumor burden (FIG. 10).

In data set [1] the test system is CD45+ primary AML cells from an AML patient. In words: Primary AML cells, viable cells and annexin V. The class given is cell-based, human. The following applies: 4 days. As for the experimental part:
as §1

Data set [2] concerns CD45+ normal bone marrow cells from a healthy volunteer. In words: Normal bone marrow cells, viable cells and annexin V. The class given is cell-based, human. The following applies: 4 days. As for the experimental part: as §1
In data set [3] the test system is OCI-AML3 cells constitutively expressing luciferase. In words: OCI-AML3 leukemia model in NSG mice (IVIS imaging, survival). It is filed as in vivo, NSG nude mice. As for the experimental part: as §1
The next data set has as its system NB-1 cells. In words: Neuroblastoma cellular assay. The class given is cell-based. The following applies: NB-1, various concentrations. From the text:
(§2) NB-1, Gli56, and D423 cell lines are deleted for ENO-1 (GLI56 and D423) or PGD, which renders them with reduced glycolytic capacity (Muller, F. et al., Nature, 2012, 488, 337-42).

In another data set the test system is Gli56 cells. In words: Glioblastoma cellular assay. To be noted: Gli56, various concentrations. The class given is cell-based.
Text: as §2

The next data set deals with D423 cells. Nature of the data set: Cellular assay in ENO-1 deleted D423 cells. The class given is cell-based. The following applies: D423, various concentrations.
Text: as §2

The test system of another data set is NB-1 xenografts. Nature of the data set: NB-1 xenograft model. It is filed as in vivo, CD-1 nude mice. The following applies: 40 mg/kg daily oral. The text has this: To establish activity and provide in vivo proof of concept, NB-1 cells were implanted into CD-1 nude mice and treated with vehicle or 40 mpk of the compound of Example 7 po daily hen tumors reached 400-500 mm^3. Tumor size was measure 3×/week using caliper measurements (FIG. 4).

A further data set deals with H460 xenografts. Nature of the data set: H460 non-small cell lung cancer xenograft. The class given is in vivo, CD-1 nude mice. As for the experimental part: Non-Small Cell Lung Cancer: H460 cells were implanted subcutaneously in CD-1 nude mice and treated with the compound of Example 7 (40 mpk qdx 14) delivered by oral gavage for 14 days. Animals were randomized into study groups and the study initiated when the average tumor volume was 400 mm^3. During treatment, tumor volume was measured three times per week to determine tumor growth over the course of the study (FIG. 5). Nine tumor bearing mice were included in each group. On day 15, 3 hours prior to take down, hypoxyprobe (Hypoxyprobe, Inc. cat #HP3) was injected into mice. Tumor sections were stained (dark areas) for the level of hypoxia utilizing an anti-hypoxyprobe antibody and standard IHC methods (FIG. 6). The same tumors were stained for the expression of HIF regulated gene carbonic anhydrase IX (CA9) using standard IHC methods (FIG. 7).

A further data set has as its system HN5 xenograft. In words: HN5 head and neck xenograft with fractionated irradiation. It is filed as in vivo, CD-1 nude mice. To be noted: 60 mg/kg daily oral and/or 4 Gy irradiation for 5 days. As for the experimental part:
HN5 head and neck cells were injected intramuscularly into CD-1 nude mice. Upon tumors reaching 8.5 mm in diameter, animals were enrolled in the study and received either vehicle or the compound of Example 7 (days 0-5) with or without a 4 Gy dose 6 hours after the compound of Example 7 on days 1-5 of the study (FIG. 12). Tumor size was measured every other day to determine the rate of growth (FIG. 13).

As for `CN1CCN(c2cc(Cn3cc(-c4nc(-c5ccc(OC(F)(F)F)cc5)no4)ccc3=O)ccn2)CC1` [Example 7, 1-methyl-4-(4-((2-oxo-5-(3-(4-(trifluoromethoxy)phenyl)-1,2,4-oxadiazol-5-yl)pyridin-1(2H)-yl)methyl)pyridin-1-ium-2-yl)piperazin-1-ium bis-trifluoroacetate], the IC50 with 293T-HRE-GFP-luc cells is under 100 nM. For the same compound, the “Percent of viable cells” value with TMD8 cells is “respond robustly”. Besides, the “percent of viable cells normalized to DMSO control” value in the data set on OCI-AML3 cell line is on record as “reduced number of viable cells”. In data set [1], the “number of viable cells” value is “significant decrease” and the “percentage of apoptotic (annexin V) cells” value is listed as “significant increase”. For the same compound, the “response (viable cells, annexin V)” value in data set [2] is “minimal response”. The “disease burden (IVIS imaging)” value in [3] (60 mg/kg daily oral, NSG mice) is listed as “reduces disease burden”. Also, the survival result in [3] (60 mpk daily oral, relative to vehicle) is “significantly increased their survival”. Further, in the data set with NB-1 cells, the cell death entry is reported as “cell death readily apparent” and the cell number entry was “significantly reduced”. For the same compound, in the data set with Gli56 cells, the cell death result was “cell death readily apparent” and the cell number result is “significantly reduced”. Also, in the data set on D423 cells, the cell number result was “significantly reduced”. Also, the tumor growth result in the data set with NB-1 xenografts is recorded as “reduces the tumor growth”. Besides, the tumor growth entry with H460 xenografts (40 mpk qdx14 oral gavage) is given as “inhibited the growth of the H460 xenografts”. In addition, in the data set on H460 xenografts (40 mpk qdx14 oral, day 15), the “carbonic anhydrase IX (CA9) protein expression in tumor (IHC)” value is “elimination of hypoxia and CA9 protein expression”; the “level of hypoxia in tumor (hypoxyprobe IHC)” value is on record as “elimination of hypoxia”. Besides, the “tumor diameter, combination with irradiation” value in the data set with HN5 xenograft was “enhance fractionated irradidation”.
`COC(=O)c1cccc(Cn2cc(-c3nc(-c4ccc(OC(F)(F)F)cc4)no3)ccc2=O)c1` [Example 107, methyl 3-((2-oxo-5-(3-(4-(trifluoromethoxy)phenyl)-1,2,4-oxadiazol-5-yl)pyridin-1(2H)-yl)methyl)benzoate] showed an IC50 in the data set on 293T-HRE-GFP-luc cells (6 h) of 100 to 1000 nM.
Compound `O=c1ccc(-c2nc(-c3ccc(OC(F)(F)F)cc3)no2)cn1Cc1cccc(C(O)CO)c1` (centres unmarked) [Example 53, 1-(3-(1,2-Dihydroxyethyl)benzyl)-5-(3-(4-(trifluoromethoxy)phenyl)-1,2,4-oxadiazol-5-yl)pyridin-2(1H)-one] gave an IC50 with 293T-HRE-GFP-luc cells (6 h) of under 100 nM.

In general, IC50 refers to the concentration needed to halve the response being measured. Read a low IC50 as higher potency.
